Results from publication PMC5474674, “D-BMAP18 Antimicrobial Peptide Is Active In vitro, Resists to Pulmonary Proteases but Loses Its Activity in a Murine Model of Pseudomonas aeruginosa Lung Infection” (Frontiers in Chemistry, 2017).
Where a SMILES comes first, the peptide text is derived from it.

Columns and labels:
[1] = cited from earlier work
Experimental: D-BMAP18 was synthesized to provide a molecule more resistant to enzymatic cleavage. The stability of D-BMAP18 was tested in murine BAL fluid.

[2] = test system: P. aeruginosa RP73; assay type: in vivo, mouse; conditions: 10 mg/kg intratracheal, day 1
Experimental: C57/Bl6NCrl mice (n = 8/group) were intratracheally challenged with 1 × 10^7 cells P. aeruginosa RP73 clinical strain, and 5 min later a single dose of D-BMAP18 at different concentrations (0.5, 1, and 2 mg/kg) was intratracheally administrated. Sterile distilled water alone or tobramycin [10 mg/kg] (Sigma-Aldrich S.r.l.), were used respectively as negative and positive control. […] Subsequently, lungs were homogenized (24,000 rpm) on ice in 1 ml of sterile PBS by using Ultra-Turrax T25-Basic homogenizer (IKA-Werke GmbH & Co. KG, Germany). Ten-fold serial dilutions of lung homogenates were plated on MH agar (Oxoid SpA), and the number of colony-forming units (CFU) was counted after incubation at 37°C for 24 h.

CC(C)C[C@H](NC(=O)[C@H](CCCCN)NC(=O)[C@H](CCCCN)NC(=O)[C@H](Cc1ccccc1)NC(=O)[C@H](CC(C)C)NC(=O)[C@H](CCCCN)NC(=O)[C@H](CCCCN)NC(=O)[C@H](Cc1ccccc1)NC(=O)[C@H](CCCCN)NC(=O)[C@H](CCCCN)NC(=O)[C@H](CCCNC(=N)N)NC(=O)[C@H](Cc1ccccc1)NC(=O)[C@H](CCCNC(=N)N)NC(=O)[C@H](CCCCN)NC(=O)[C@H](Cc1ccccc1)NC(=O)[C@H](CCCNC(=N)N)NC(=O)CN)C(=O)N[C@@H](CO)C(N)=O [L-BMAP18] (H-GRFKRFRKKFKKLFKKLS-NH2)
degradation in murine BAL after 10 min [1]: most of the L-BMAP-18 was digested | time within which peptide is degraded by pulmonary proteases in murine BAL [1]: ≤ 20 min

NC[C@H]1O[C@H](O[C@H]2[C@H](O)[C@@H](O[C@H]3O[C@H](CO)[C@@H](O)[C@H](N)[C@H]3O)[C@H](N)C[C@@H]2N)[C@H](N)C[C@@H]1O [tobramycin]
effect on bacterial load in murine lungs [2]: weak effect | mortality ([2]; 1 out of 8 mice): 12.5%
